Results on three molecules are retold here after paper PMC10465125 (eLife, 2023).

What is called IC50 is the concentration at which inhibition is half-maximal. Usually EC50 stands for the concentration at which the effect is half-maximal.

For one data set, the system named is Mpro of SARS-CoV-2. To be noted: in vitro analysis; ref Zhu and Xie, 2020; cited from earlier work.
Data set [1] deals with SARS-CoV-2 wild-type Spike Vpps. Set-up: EC50 (inhibition of SARS-CoV-2 Vpp infection by 50%): unit not given beside the values.
Data set [2] concerns the target SARS-CoV-2 Spike RBD / human ACE2 interaction (UniProt P0DTC2+Q9BYF1). The data set is described as follows: Spike protein–ACE2 interaction ELISA assay. The class given is binding, SARS-CoV-2; human. To be noted: doses 0, 50, 100 μg/ml (method b11 says μM), Figure 1A. Background: In an ELISA, binding on a coated surface is turned into a signal by an enzyme label.
The nature of data set [3]: Cytotoxicity assay (MTT), 293T-ACE2. The class given is cell-based. To be noted: human, tested concentrations given in μg/ml, read-out: CC50 (median cytotoxic concentration). As for the experimental part: (§1) The human embryonic kidney cells 293T stably expressing recombinant human ACE2 (293T-ACE2) were maintained in DMEM containing 10% FBS, 1% P/S, and […] hygromycin. The NCI-H460 cell line (human non-small cell lung cancer cells) was preserved in Modified Eagle’s Medium (MEM, Gibco, USA) supplemented with 10% FBS and 1% P/S. The VeroE6 cell line (African green monkey kidney cells) was grown in Dulbecco’s Modified Eagle’s Medium (DMEM, Gibco) supplemented with 10% fetal bovine serum (FBS, Gibco), 1× GlutaMAX (Gibco), and 1% penicillin/streptomycin (P/S, Hyclone, USA). All these cells were cultured at 37°C and 5% CO2. All cell lines are checked annually for mycoplasma contamination, and human cell lines were authenticated through STR profiling.
(§2) […]. The medium was removed, and viable cells were detected with MTT assay (Cyrusbioscience, Taiwan), which was read by absorbance at 570 nm by an ELISA reader. All experiments were performed independently in triplicates and repeated three times.

Data set [4] concerns wild-type SARS-CoV-2 Spike Vpps. The data set is described as follows: microbe, parasite or virus in culture. To be noted: Severe acute respiratory syndrome coronavirus 2, NCI-H460, read-out: EC50 (inhibition of SARS-CoV-2 Vpp infection by 50%).
For another data set, the target named is T1, SARS-CoV-2 Mpro (Severe acute respiratory syndrome coronavirus 2, UniProt P0DTD1).
T1 construct: the main protease (M^pro/3CL^pro), a chymotrypsin-like protease
The class given is biochemical.

Data set [5] relates to SARS-CoV-2 wild-type Spike Vpps. The data set is described as follows: microbe, parasite or virus in culture. To be noted: Severe acute respiratory syndrome coronavirus 2, VeroE6/TMPRSS2, read-out: EC50 (inhibition of SARS-CoV-2 Vpp infection by 50%).
Another data set concerns the target T2, human TMPRSS2 (Homo sapiens, UniProt O15393).
T2 construct: Flag; host or cells: 293T
The data set is described as follows: Cell-based TMPRSS2 enzyme activity assay (293T-TMPRSS2 cells, Boc-QAR-AMC).

In data set [6] the test system is wild-type SARS-CoV-2 Spike Vpps. The data set is described as follows: microbe, parasite or virus in culture. To be noted: Severe acute respiratory syndrome coronavirus 2, 293T/ACE2, read-out: EC50 (inhibition of SARS-CoV-2 Vpp infection by 50%).
Data set [7] can be described thus: Cytotoxicity assay (MTT), NCI-H460. It is filed as cell-based. To be noted: human, tested concentrations given in μg/ml, read-out: CC50 (median cytotoxic concentration). As for the experimental part: as §1, §2
Data set [8] in a line: Cytotoxicity assay (MTT), VeroE6. The class given is cell-based. To be noted: African green monkey, tested concentrations given in μg/ml, read-out: CC50 (median cytotoxic concentration). As for the experimental part:
as §1, §2

Data set [9] relates to SARS-CoV-2 wild-type Spike Vpps. The data set is described as follows: microbe, parasite or virus in culture. To be noted: Severe acute respiratory syndrome coronavirus 2, Vero C1008, read-out: EC50 (inhibition of SARS-CoV-2 Vpp infection by 50%).

Where two headings read alike, the source gives them in different places.

T2 sequence (O15393 whole entry): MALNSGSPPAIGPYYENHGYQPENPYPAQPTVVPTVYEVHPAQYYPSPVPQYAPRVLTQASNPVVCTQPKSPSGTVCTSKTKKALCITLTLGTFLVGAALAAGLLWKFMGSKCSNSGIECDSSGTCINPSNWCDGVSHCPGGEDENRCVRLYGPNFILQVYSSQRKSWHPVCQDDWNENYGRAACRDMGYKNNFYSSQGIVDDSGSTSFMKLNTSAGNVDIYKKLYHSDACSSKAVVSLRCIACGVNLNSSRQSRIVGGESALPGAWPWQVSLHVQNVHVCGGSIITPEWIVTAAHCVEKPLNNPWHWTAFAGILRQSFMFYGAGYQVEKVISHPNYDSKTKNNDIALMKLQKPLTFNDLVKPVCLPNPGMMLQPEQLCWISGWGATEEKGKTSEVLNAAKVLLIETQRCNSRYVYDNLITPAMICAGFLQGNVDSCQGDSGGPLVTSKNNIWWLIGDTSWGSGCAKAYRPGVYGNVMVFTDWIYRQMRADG

Turning to `Oc1cc(O)c2c(c1)O[C@H](c1ccc(O)c(O)c1)[C@H](O)[C@H]2c1c(O)cc(O)c2c1O[C@H](c1ccc(O)c(O)c1)[C@H](O)C2` [PB2, procyanidin B2], the 50% inhibitory concentration (IC50) with Mpro of SARS-CoV-2 was 75.3 ± 1.29 µM.
With tannic acid [reference compound], the “EC50 (inhibition of SARS-CoV-2 Vpp infection by 50%)” value in data set [1] is reported as 6.91±0.63.
In the case of `O=C1O[C@H]2[C@@H]3OC(=O)c4cc(O)c(O)c(O)c4-c4c(O)c(O)c5oc(=O)c6c(c(O)c(O)c7oc(=O)c4c5c76)-c4c(cc(O)c(O)c4O)C(=O)OC[C@H]3OC(O)[C@@H]2OC(=O)c2cc(O)c(O)c(O)c2-c2c1cc(O)c(O)c2O` (mixture of isomers) [Punicalagin, punicalagin], the “SI (ratio of CC50 to EC50)” value in data set [1] is recorded as 15.49. Besides, the “inhibitory activity against the Spike protein–ACE2 interaction” value in data set [2] was “highest inhibitory activity”. The figures for the CC50 at 24 h in data set [3], in data set [7] and in data set [8] were 606 ± 61.1 µg/mL, 88.4 ± 6.76 µg/mL and 84.7 ± 5.55 µg/mL, respectively. Also, the EC50 in data set [4] came to 4.65 ± 0.47 µg/mL; in data set [5], 5.8 ± 1.74 µg/mL; in data set [6], 3.7 ± 2.24 µg/mL; in data set [9], 5.47 ± 1.27 µg/mL. Also, at SARS-CoV-2 Mpro, the “inhibition of Mpro enzymatic activity” value is “even stronger inhibitory activity on M^pro than tannic acid and OPCs”. Further, on human TMPRSS2, 31.9 µM corresponded to half-maximal inhibition (IC50). The “inhibitory activity on TMPRSS2” value at human TMPRSS2 (Figure 1C, in words) was “only moderate inhibitory activity”.
